The assay concerns 4T-1 cells of mammary cancer. Put plainly: Orthotopic 4T1 breast cancer model, lung metastases. In kind it is in vivo, BALB/c mice. Conditions: after 3 weeks. The source says: The objective of this study was to evaluate the capacity of a suspension of liposomal MTP-PE, prepared according to the invention and administered orally, to inhibit the development of pulmonary metastases from cancer of the mammary gland.
The experimental model consisted of using immunocompetent mice of the BALB/c strain and performing an orthotopic transplant of 4T-1 cells of mammary cancer of murine origin.
This orthotopic graft forms a tumor reproducing human breast cancer which disseminates and forms metastases in the lungs after 3 weeks.
Suspensions of liposomes were prepared according to the method indicated in example 1.
4T1 tumors were induced on day zero (DO) orthotopically in 60 BALB/c female mice under anesthesia.
A total of 300,000 4T1 tumor cells were slowly injected into the right thoracic breast tissue.
Animals were randomized by tumor size on Day 9 into six groups of ten animals each […]. Homogeneity of tumor sizes between groups was tested by analysis of variance (ANOVA).
The animals of Groups 1, 2 and 3 were treated respectively with Batch H3 (control), Batch G3 and Batch G3 twice a week orally.
Additionally, animals in Groups 2 and 4 were treated with intravenous injections of doxorubicin at 8 mg/kg once weekly for 3 weeks. […] The number of lung metastases was counted using a binocular loupe.

In the case of `COc1cccc2c1C(=O)c1c(O)c3c(c(O)c1C2=O)C[C@@](O)(C(=O)CO)C[C@@H]3O[C@H]1C[C@H](N)[C@H](O)[C@H](C)O1` [doxorubicin], the “Effect on lung metastases (in words)” value was “did not show significant efficacy”.

Values taken from patent publication US20240108685A1, “ORAL LIPOSOMAL COMPOSITIONS” (priority 2021, published 2024).
